In patent US12011452B2, “Compositions and methods for treatment of mitochondrial respiratory chain dysfunction and other mitochondrial disorders” (The Children's Hospital of Philadelphia, priority 2018, dated 2024):
Counter-ions that a name gives are not always drawn. Like-named read-outs stand apart in the source and are kept apart here.

Tests used:
hsp-6p::GFP [1] = experiment: UPRmt in K09A9.5 (gas-1) knockdown hsp-6p::gfp reporter worms; format: in vivo, C. elegans; settings: 10 mM Glu, 2.5 mM NAC, 1 mM Nicotinic acid
Protocol: UPRmt in C. elegans is assessed using a GFP reporter for hsp-6.

NUBPL^−/− C. elegans = experiment: Lifespan of NUBPL-/- C. elegans model of Complex I disease; format: in vivo; settings: Glu 10 mM, NAC 2.5 mM, DCA 25 mM, single biological replicate
Source text: We obtained a genetic knockout NUBPL (34.7% homology) worm strain TM3754 from the National BioResource Project, which has a 478 base pair deletion. […] The mutation in this strain is currently not balanced, so to balance it and obtain a homozygous mutant strain we have outcrossed it with FX30168 tm18[dpy-5(tmIs1236)]).
These animal models can be used to advantage for identifying new agents useful for the treatment of mitochondrial and other respiratory chain disorders. […] NUBPL is a nuclear gene-encoded complex I assembly factor, in which autosomal recessive (biallelic) mutations cause severe human mitochondrial disease manifesting with cerebellar ataxia and Leigh syndrome.

gas-1(fc21) C. elegans = experiment: Lifespan of gas-1(fc21) Complex I NDUFS2 mutant worms; format: in vivo; settings: administered at development (L1); previous studies in applicant's lab
[2] = tested on: DLD-1 deficient (did-1 RNAi) C. elegans; experiment: Animal size (length) of DLD-1 deficient (dld-1 RNAi) worms, COPAS Biosorter; format: in vivo; settings: dld-1 RNAi worms; conc.: Nicotinic Acid 1 mM; Riboflavin 10 uM; Thiamine 25 mM; L-Carnitine 100 uM; Folinic Acid 10 uM; Glucose 10 uM; DCA 25 mM; Cysteamine 100 um; NAC 2.5 Mm; AICAR 500 uM; Hydralazine 200 uM; Lithium Chloride 10 mM; Cyclohexamide 2 uM; Arginine 10 mM; Taurine 800 uM; Resveratrol 50 uM; Rapamycin 2.5 nM; Probucol 5 uM; Lipoic Acid 10 uM; Vitamin E 250 uM
Protocol: RNAi feeding—DLD-1 RNAi clone (LLC1.3) was obtained from the Ahringer RNAi collection and was sequence confirmed prior to use. The vector L4440 was utilized as a control.
(§1) Brood size analysis—Worms were synchronized by picking ten to fifteen N2 gravid adult worms onto NGM plates containing 0.2 mM IPTG, ampicillin and tetracycline spread with DLD-1 (LLCI.3) or L4440 bacteria and allowed to lay eggs for 2-2.5 hours. A single L4 larvae from the egg lay was placed on a 4 mm dish containing NGM and corresponding RNAi clone and allowed to lay eggs for 24 hours before being transferred to a fresh 4 mm NGM plate. Worms were transferred to fresh plates for 5 days and progeny were counted from each plate. Western blot analysis—Approximately 500 young adult worms were briefly washed with S. basal media before resuspension in 250 uL of RIPA buffer (50 mM Tris HCl, pH 8.0, 150 mM NaCl, 1.0% NP-40, 0.5% sodium deoxycholate, 1.0 mM EDTA, 0.1% SDS) containing a 1/100 dilution of Protease inhibitor cocktail (Sigma). Worms were lysed using a mechanical hand homogenizer and pestle on ice and the resulting lysate was maintained at constant agitation for 30 minutes at 4° C. Lysate was subsequently centrifuged for 20 minutes at 16,000 rpm and the supernatant was removed. Protein concentration was determined using the Pierce BCA protein assay kit. 30 ug of whole cell lysate was utilized and blots were probed with anti-LAD monoclonal antibody at a 1:7500 dilution (abcam) to detect the DLD-1 protein. As a loading control blots were additionally probed with anti-Beta tubulin (source) at a […]. Chemotaxis Assay—Chemotaxis analysis was performed as has been previously described (Haroon, S. J. of Cell Reports (2018); pmid:29562168). In brief, approximately 30 worms were collected and washed with S. basal media. Worms were placed 5 cm away from a spot containing 2 uL of 10% isoamyl alcohol dissolved in 100% ethanol and 1 uL of 10% sodium azide. After one hour distance traveled by each worm was marked and analyzed via image J. Length Analysis—A synchronized population of worms grown on L4440 and LLCI.3 RNAi clones were monitored from the L4 stage of development till day 5 of adulthood. On the day of length analysis […] Quantification of Hsp6::GFP induction—A synchronized egg lay using 15-20 Hsp6::GFP gravid young adult worms on L4440 or LLCI.3 RNAi clones was performed to induce depletion of DLD-1 protein. Day 1 young adult worms were washed once in 4-5 mL of S. basal in a 50 mL conical tube and pelleted by centrifugation at 1300×g for 1 minute. Spent S. basal was removed and worms were resuspended in a final volume of 10 mL in preparation for biosorter analysis. An excitation wavelength of 488 nm and emission filter of 510 nm was utilized to measure induction of Hsp6::GFP induction in individual worms. Experiments were conducted with approximately 300 worms per sample with three biological replicates for each condition tested.
(§2) DLD depletion in C. elegans was achieved by feeding wild-type (N2 Bristol) worms E. coli expressing a dsRNA targeting DLD-1 messenger RNA. Brood size, survival, activity, growth (length), DLD-1 expression, and mitochondrial unfolded protein response (UPR^mt) were quantified in the resulting DLD-1^−/− animals. High throughput semi-automated analyses of animal growth (length) and mitochondrial stress response (UPR^mt) were also measured in day 1 adult worm populations using the COPAS Biosorter (Union Biometrica).
(§3) Therapeutic impact on DLD-1^−/− C. elegans UPR^mt induction and growth (length), as well as DLDH−/− zebrafish survival, liver morphology, and swimming behavior were tested for 5 therapies, including a PDH activator (dichloroacetate, DCA), PDH cofactors (thiamine, riboflavin, lipoic acid), and a lipid lowering drug that functions as a signaling modifier to inhibit mTORCI and activate AMPK and PPAR (probucol).

gas-1(fc21) worms = experiment: Mitochondrial physiology (TMRE, MitoSOX, MitoTracker Green) in gas-1(fc21) worms; format: in vivo, C. elegans; settings: 24 hour treatment
Protocol: Mitochondrial oxidant burden (MitoSOX Red), membrane potential (tetramethylrhodamine ethyl ester, TMRE), and mitochondrial content (MitoTracker Green FM, MTG) were performed in C. elegans at 20° C. using in vivo terminal pharyngeal bulb relative fluorescence microscopic quantitation. […] Simultaneously with the drug treatments, worms were treated with either 10 μM MitoSOX Red (matrix oxidant burden), 100 nM TMRE (mitochondrial membrane potential), or 2 μM MitoTracker Green FM (mitochondria content) for 24 h. The next day, worms were transferred with a pick onto 35 mm agar plates spread with OP50 E. coli without dye for 1 h to allow clearing of residual dye from the gut. Worms were then paralyzed in situ with 5 mg/ml levamisole. Photographs were taken in a darkened room at 160× magnification with a Cool Snap cf2 camera (Nikon, Melville, N.Y.). A CY3 fluorescence cube set (MZFLIII, Leica, Bannockburn, IL) was used for MitoSOX and TMRE. […] Fluorescence data for each strain were normalized to its same day control to account for day-to-day variation. […] The significance of the difference in the mean fluorescence intensity between strains under different experimental conditions was assessed by mixed-effect ANOVA, which analyzes potential batch effect due to samples being experimentally prepared, processed, and analyzed on different days by including a batch random effect in the model. […]

SURF1-del1−/− zebrafish = experiment: SURF1 knockout zebrafish pre-treatment before NaN3 exposure: brain death, startle response; format: in vivo
Source text: The phenotypes assessed can include without limitation, swimming activity or swimming fatigue, organ structural impairment or dysfunction gray brain alterations in mitochondrial physiology (=brain death) (FIG. 36C), heart rate, startle (tap) response (stimulus on plate), and touch response (stimulus on animal).

[3] = cited from earlier work
[4] = cited from earlier work; remark: listed apart in the source
[5] = tested on: rotenone treated zebrafish; experiment: Rotenone model of brain death in zebrafish; settings: in vivo
Protocol: FIG. 36B) Wild-type (AB) fish are pre-exposed to drug treatments in their water from 5 days post fertilization (dpf) to 7 dpf. On 7 dpf, Zebrafish are co-treated with 150 nM of Rotenone (complex I inhibitor) and the same drug treatment(s). Zebrafish are then placed on the automated Zebrabox (Viewpoint) for 20 minutes of light at 60% followed by 20 minutes of darkness (eg, light at 0%) to induce a neurobehavioral startle response. The activity from the startle response is binned to 5 minute, and shown here as average activity at 581 minutes post-rotenone exposure. Activity score is normalized using percent of control (POC) to wild-type AB fish. […] Error bars convey standard error of mean. *, p<0.05; **, p<0.01; ***, p<0.001 by Student's T test. Glu, 10 mM glucose. […] NAC, 2.5 mM N-acetylcysteine. […] FIG. 36D+36E.
hsp-6p::GFP [6] = experiment: Mitochondrial stress (UPRmt) hsp-6p::GFP induction in dld-1 RNAi worms; format: in vivo, C. elegans; settings: dld-1 RNAi worms; conc.: Nicotinic Acid 1 mM; Riboflavin 10 uM; Thiamine 25 mM; L-Carnitine 100 uM; Folinic Acid 10 uM; Glucose 10 uM; DCA 25 mM; Cysteamine 100 um; NAC 2.5 Mm; AICAR 500 uM; Hydralazine 200 uM; Lithium Chloride 10 mM; Cyclohexamide 2 uM; Arginine 10 mM; Taurine 800 uM; Resveratrol 50 uM; Rapamycin 2.5 nM; Probucol 5 uM; Lipoic Acid 10 uM; Vitamin E 250 uM
Protocol: as §1, §2, §3

N2 = experiment: GSH levels in worms by HPLC-ECD after GSH depleting agent; format: in vivo, C. elegans; settings: treated for 24 hours
Protocol: FIG. 28. Effect of the GSH Depleting agent, Diethyl Maleate (DEM). Worms were treated with DEM for 24 hours.
GSH levels are an important parameter to evaluate the physiological effects of mitochondrial disease. In the present example, the development and optimization of an HPLC-ECD assay to sensitively quantify reduced (GSH) and oxidized (GSSG) glutathione levels in C. elegans is described. We have optimized each of the following: mobile phase buffer composition, homogenization conditions, deproteinizing conditions and reducing agents.

[7] = pre-treated from 5 dpf, 45 μM NaN3 from 6 dpf, assessed 7 dpf

Row | Compound | UPRmt stress response (hsp-6p::gfp fluorescence) (hsp-6p::GFP [1]) | median lifespan of NUBPL−/− worms (NUBPL^−/− C. elegans) | median lifespan of NUBPL−/− worms (NUBPL^−/− C. elegans; listed as N-acetylcysteine) | rescue of short lifespan of gas-1(fc21) to wild type N2 levels by individual compounds (gas-1(fc21) C. elegans) | Size [2] | effect on reduced mitochondrial membrane potential (gas-1(fc21) worms) | effect on sodium azide treated (stressor) brains of surf1 KO zebrafish (SURF1-del1−/− zebrafish; FIG. 36D) | decompensation from acute low-dose CIV inhibition (SURF1-del1−/− zebrafish; SURF1−/− animals) | brain death from NaN3 exposure (SURF1-del1−/− zebrafish; [7]) | neuromuscular dysfunction (startle response) from NaN3 exposure (SURF1-del1−/− zebrafish; [7]) | half-life ([3]; adults) | metabolism ([3]; in vivo) | urine excretion ([3]; in vivo) | half-life ([3]; neonates) | solubility in chloroform and ether [4] | solubility in water and alcohol [4] | effect on rotenone treated (stressor) brains of zebrafish [5] | HSP-6P::GFP (hsp-6p::GFP [6]) | GSH levels (N2)
1 | CC(=O)N[C@@H](CS)C(=O)O [NAC, N-acetylcysteine] | significantly reduce | significantly rescued | improve | partially or fully rescue | No Effect | significantly increases | protective effects | preventing | prevented | prevented | 5.6 h | extensively liver metabolized | 22-30% | 11 h | practically insoluble | soluble | Protective effects | No Effect | 
2 | CCOC(=O)/C=C\C(=O)OCC [DEM, Diethyl Maleate] |  |  |  |  |  |  |  |  |  |  |  |  |  |  |  |  |  |  | dose-dependently reduced
